Measured values published in article PMC10725991, “Kaempferol is a novel antiviral agent against channel catfish virus infection through blocking viral attachment and penetration in vitro” (Frontiers in Veterinary Science, 2023).

Key:
CCO cells = test: Compounds cytotoxicity assay (CCK-8 cell viability); type: cell-based; details: channel catfish, 72 h
Protocol: The cytotoxicity effects of the selected compounds were detected in CCO cells by the cell viability assay. In brief, the CCO cells were seeded in 96-well plates and cultured to reach approximately 90% confluence in each well at 28°C. Subsequently, the monolayer cells were exposed to a maintenance medium with the tested compounds at different concentrations or DMSO for 72 h. Cell Counting Kit-8 (Beyotime, China) was used to measure the cell viability according to the manufacturer’s protocol after 72 h incubation. The optical density at 450 nm was measured using a Spark microplate reader (TECAN, Switzerland). Then, the maximum safe concentration (≥ 90% cell survived, SC90) of compounds to CCO cells was calculated according to the cell viability.
All data were analyzed with GraphPad Prism 8.0. Viral titers were log10 transformed prior to statistical analyses. The SC90 values were calculated using probit analysis. The data are expressed as the arithmetic mean ± standard deviation (SD) and were analyzed by one-way ANOVA with multiple comparisons test. Statistical significance was defined as *p < 0.05, **p < 0.01.
Figure 1 Cytotoxicity assay. The CCO cells were treated with 12 tested compounds with different concentrations in a 96-well plate for 72 h, and then the cell viability was measured by CCK-8. (A) Kaempferol, (B) Tannic acid, (C) P-Coumaric acid, (D) Magnolol, (E) Baicalein, (F) Genistein, (G) Mangiferin, (H) Rosmarinic acid, (I) Artemisinin, (J) Myricetin, (K) Ginkgolic acid, (L) Shikonin. Data represent mean ± SD normalized to values for DMSO treated group. The SC90 was analyzed and calculated using probit analysis. TEXT PRINTED IN THE PICTURE: (A) Kaempferol: SC90 = 47.53 μg/ml | (B) Tannic acid: SC90 = 90.02 μg/ml | (C) P-Coumaric acid: SC90 ≥500 μg/ml | (D) Magnolol: SC90 = 10.02 μg/ml | (E) Baicalein: SC90 = 29.73 μg/ml | (F) Genistein: SC90 = 13.66 μg/ml | (G) Mangiferin: SC90 ≥500 μg/ml | (H) Rosmarinic acid: SC90 = 46.37 μg/ml | (I) Artemisinin: SC90 ≥500 μg/ml | (J) Myricetin: SC90 = 346.19 μg/ml | (K) Ginkgolic acid: SC90 = 10.89 μg/ml | (L) Shikonin: SC90 = 54.44 μg/ml DOUBTS OF THE COPYIST ABOUT THIS PICTURE: All SC90 values are in small print, so 3, 5, 6, 8 and 9 are hard to tell apart / Kaempferol, SC90: 47.53 (5 or 3 uncertain) / Tannic acid, SC90: 90.02 (9 or 8 uncertain) / Baicalein, SC90: 29.73 (9 or 3 uncertain) / Genistein, SC90: 13.66 (3 and 6 uncertain) / Rosmarinic acid, SC90: 46.37 (6 and 3 uncertain) / Myricetin, SC90: 346.19 (3, 6 and 9 uncertain) / Ginkgolic acid, SC90: 10.89 (8 and 9 uncertain) / Shikonin, SC90: 54.44 (5 uncertain) / P-Coumaric acid, Mangiferin, Artemisinin, SC90: sign ≥ or >; 500 (5 uncertain)

[1] = tested on: CCV ORF 39 and ORF 59 proteins in CCO cells; test: Western blot of CCV ORF 39 and ORF 59 proteins; type: cell-based, Channel catfish virus (CCV, Ictalurid herpesvirus 1)
Protocol: To test the anti-CCV effect of tested compounds in the preliminary screening, CCO cells were seeded in 24-well plates and cultured to reach approximately 90% confluence in each well at 28°C. Subsequently, the cells were infected with the CCV at 10^3 TCID50/ml at 28°C for 1 h. After that, the cell culture medium was replaced using an isopycnic DMEM medium containing the maximum safe concentration of indicated compounds. CCV-infected cells treated with DMSO served as a negative control, whereas CCV-infected cells treated with acyclovir (2.5 μg/mL) served as a positive control ([33]). After 36 h treatment, cell lysates were collected to test the CCV gene expression by the RT-qPCR, and the percentage inhibition of CCV infection by individual compound was calculated. According to the percentage inhibition results, we further detected the antiviral activity of kaempferol at maximum safe concentration by viral cytopathic effects (CPE) and western blot analysis. […]
For the western blot assay, firstly, cells were lysed with cell lysis buffer (Beyotime, China), and then the concentrations of protein samples collected from cell lysates protein were determined using the Enhanced BCA Protein Assay Kit (Beyotime, China). […] Finally, the signals were detected using an ECL kit (Beyotime, China) according to the manufacturer’s instructions.

Compound: O=c1c(O)c(-c2ccc(O)cc2)oc2cc(O)cc(O)c12 [Kaempferol]
- SC90 (maximum safe concentration, ≥ 90% cell survived) (CCO cells): 47.53 µg/mL
- viral protein (CCV ORF 39, ORF 59) level, western blot ([1]; kaempferol 10 μg/mL to 15 μg/mL, 24 and 36 h): nearly undetectable
- expression of viral proteins (CCV ORF 39, ORF 59), western blot ([1]; maximum safe concentration (47.53 μg/mL), 36 h post-infection): suppressed the expression of viral proteins
